Results: PubChem BioAssay (NCI)
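Briefly, cells in 96-well plates were exposed to five compound concentrations for 48 h, and endpoints were estimated by linear interpolation. TGI denotes the concentration required for complete inhibition of growth.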

How the values were obtained:
Test in all cases: NCI tumour cell line growth inhibition, 48 h
786-0 renal = test system: 786-0 renal
A498 renal = test system: A498 renal
A549 NSCLC = test system: A549 NSCLC
ACHN renal = test system: ACHN renal
BT-549 breast = test system: BT-549 breast
CAKI-1 renal = test system: CAKI-1 renal
DU-145 prostate = test system: DU-145 prostate
EKVX NSCLC = test system: EKVX NSCLC
HCC-2998 colon = test system: HCC-2998 colon
HCT-116 colon = test system: HCT-116 colon
HCT-15 colon = test system: HCT-15 colon
HL-60(TB) leukemia = test system: HL-60(TB) leukemia
HOP-62 NSCLC = test system: HOP-62 NSCLC
HOP-92 NSCLC = test system: HOP-92 NSCLC
KM12 colon = test system: KM12 colon
M14 melanoma = test system: M14 melanoma
MALME-3M melanoma = test system: MALME-3M melanoma
MCF7 breast = test system: MCF7 breast
MDA-MB-231 breast = test system: MDA-MB-231 breast
MDA-MB-435 = test system: MDA-MB-435
MOLT-4 leukemia = test system: MOLT-4 leukemia
NCI-H23 lung = test system: NCI-H23 lung
NCI-H460 lung = test system: NCI-H460 lung
NCI/ADR-RES ovarian = test system: NCI/ADR-RES ovarian
OVCAR-3 ovarian = test system: OVCAR-3 ovarian
OVCAR-4 ovarian = test system: OVCAR-4 ovarian
OVCAR-5 ovarian = test system: OVCAR-5 ovarian
PC-3 prostate = test system: PC-3 prostate
RPMI-8226 leukemia = test system: RPMI-8226 leukemia
RXF 393 renal = test system: RXF 393 renal
SF-295 CNS = test system: SF-295 CNS
SF-539 CNS = test system: SF-539 CNS
SK-MEL-2 melanoma = test system: SK-MEL-2 melanoma
SK-MEL-5 melanoma = test system: SK-MEL-5 melanoma
SK-OV-3 ovarian = test system: SK-OV-3 ovarian
SNB-19 CNS = test system: SNB-19 CNS
SNB-75 CNS = test system: SNB-75 CNS
SR leukemia = test system: SR leukemia
SW-620 colon = test system: SW-620 colon
TK-10 renal = test system: TK-10 renal
U251 CNS = test system: U251 CNS
UACC-62 melanoma = test system: UACC-62 melanoma
UO-31 renal = test system: UO-31 renal

Measured: TGI

COc1ccc2c(c1)CC[C@@H]1[C@@H]2CC[C@]2(C)C(=O)/C(=C/c3ccc(OC)c(OC)c3)C[C@@H]12
> 100 µM: all assays above
